# Reference: PMC11489226 (Archives of Toxicology, 2024)
# Values joined by “and” are separate entries in the source; they are usually repeats but may differ in a detail not shown here. Equal entries are not always repeated.
# Experiments:
# CYP3A4 = CYP3A4 (Homo sapiens, UniProt P08684); assay: Metabolism in transgenic HEK293 cells expressing CYP3A4; details: 20 µM parent PCB, 24 h, supernatant
# Experimental: (§1) For the generation of transgenic cell lines, we used semi-adherent HEK293 cells (DSMZ, ACC305, human embryonic kidney cells) which were cultured on a daily basis in DMEM medium supplemented with 10% (FCS) and 1% penicillin/streptomycin. In a first step CYP1A2, CYP2C8, CYP2C9, CYP3A4, CYP2A6, and CYP2E1 cDNA were cloned into the plasmid pcDNATM3.1/V5-His TOPO® using human liver RNA as a template and using the following primers: CYP1A2 for5′-[…]-3′, CYP1A2 rev 5′-[…]-3′; CYP2C8 for 5′-[…]-3′, CYP2C8 rev 5′-[…]-3′; CYP2C9 for 5′-[…]-3′, CYP2C9 rev 5′-[…]-3′; CYP3A4 for 5′-[…]-3′, CYP3A4 rev 5′-[…]-3′, CYP2A6 for 5′-[…]-3′, CYP2A6 rev 5′-[…]-3′; CYP2E1 for 5′-[…]-3′, CYP2E1 rev 5′-[…]-3′. Final constructs were verified with Sanger DNA sequencing and restriction digestion. For transfection, 3 × 10^6 HEK293 cells were pre-incubated in a 10 cm dish in DMEM medium with 10% FCS, but without antibiotics, for 18 to 24 h. When the cells reached approximately 70% confluency, they were transfected using TransIT-LT1 transfection reagent (Biozol, Eiching, Germany). The TransIT-LT1 reagent was warmed to room temperature and vortexed. 1.63 mL Opti-MEM, 16.25 µL plasmid DNA (1 µg/µL), and 48.75 µL TransIT-LT1 reagent were mixed and incubated for 15 to 30 min. The mixture was then added dropwise to the medium of the cells, and the cells were incubated again at 37 °C and 5% CO2. After 24 h, the medium was replaced with standard medium and geneticin was added for selection (1 mg/mL). Cells were selected for 6–8 weeks in bulk culture, and single cell clones were obtained subsequently by limiting dilution. Each clone was checked for insertion by PCR using genomic DNA as a template.
# (§2) Parallel samples were run without the addition of PCBs. At a confluence of 80%, PCBs (20 μM each, dissolved in ethanol) were added and cells were incubated for 24 h before harvest of supernatants. Supernatants were diluted 1:2 with 80 μL acetate buffer 0.1 M (pH = 5.3). 100 μL of this dilution were further incubated with 100 μL of ammonium acetate buffer 0.1 M (pH = 5.3) and 5 μL of β-Glucuronidase/Arylsulfatase enzyme overnight in a drying oven at 37 °C for enzymatic hydrolysis to release conjugated compounds. 50 μL of a mix of internal standards (10 ng/mL) and 600 μL of methanol were added to the samples, then mixed by vortexing for 1 min and centrifuged for 10 min at 3400g. The individual supernatants were transferred to glass LC vials and evaporated to approximately 50 μL at 45 °C under a gentle stream of nitrogen. Finally, 0.1 mol/ L ammonium acetate buffer was added to a final volume of 100 μL and then transferred to an insert for analysis.
# (§3) HEK293 cells overexpressing the respective CYP enzymes were seeded onto 6-well plates and were treated with or without 10 µM of the respective probe drug in DMEM medium for 24 hours at 37 °C and 5 % CO2. After incubation 200 µL DMEM were collected, cells were washed with PBS and adherent cells were lysed in 500 µL methanol for 20 minutes. Analytes were measured by LC-MS/MS either in methanol cell lysates or in DMEM supernatant.
# (§4) 50 µL of DMEM samples were protein precipitated by adding 200 µL of methanol and were centrifuged for 20 min, 17,000 g and 4°C. Supernatants were diluted in water or 40 % methanol according to dilution factor. Methanol cell lysates were diluted ½ with water and centrifuged for 20 min, 17,000 g and 4°C. 5 µL of the processed samples were injected for LC-MS analysis.
# CYP2C8 = target: T1, CYP2C8 (Homo sapiens, UniProt P10632); assay: Metabolism in transgenic HEK293 cells expressing CYP2C8; type: in vitro ADME; details: 20 µM parent PCB, 24 h, supernatant
# T1 construct: V5-His (vector-encoded) (C); expressed in transfected cells
# T1 sequence (P10632 1-490): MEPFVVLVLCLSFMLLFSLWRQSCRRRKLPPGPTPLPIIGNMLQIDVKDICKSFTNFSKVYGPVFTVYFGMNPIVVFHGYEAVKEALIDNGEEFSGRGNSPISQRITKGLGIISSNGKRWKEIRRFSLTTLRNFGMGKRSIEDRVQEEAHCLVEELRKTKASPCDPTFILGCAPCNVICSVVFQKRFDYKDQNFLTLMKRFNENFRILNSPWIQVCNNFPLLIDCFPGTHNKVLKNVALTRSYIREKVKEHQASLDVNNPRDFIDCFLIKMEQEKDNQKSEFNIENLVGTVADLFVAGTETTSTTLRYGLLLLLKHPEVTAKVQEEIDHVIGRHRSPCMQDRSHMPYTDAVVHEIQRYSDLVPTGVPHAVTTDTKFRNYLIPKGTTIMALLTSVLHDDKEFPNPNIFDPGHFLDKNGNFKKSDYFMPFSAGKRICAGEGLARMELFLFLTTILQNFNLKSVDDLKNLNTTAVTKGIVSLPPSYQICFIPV
# Experimental: as §1
# as §2, with “analysis. […]” for “analysis.”
# CYP2A6 = target: T2, CYP2A6 (Homo sapiens, UniProt P11509); assay: Metabolism in transgenic HEK293 cells expressing CYP2A6; type: in vitro ADME; design: V5-His (vector-encoded) (C); expressed in transfected cells; details: 20 µM parent PCB, 24 h; for Quantification of metabolites generated from PCB28, 52, and 101: supernatant; for Metabolite concentration formed, range across cell clones: HEK293CYP2A6 cell lines
# T2 sequence (P11509 1-494): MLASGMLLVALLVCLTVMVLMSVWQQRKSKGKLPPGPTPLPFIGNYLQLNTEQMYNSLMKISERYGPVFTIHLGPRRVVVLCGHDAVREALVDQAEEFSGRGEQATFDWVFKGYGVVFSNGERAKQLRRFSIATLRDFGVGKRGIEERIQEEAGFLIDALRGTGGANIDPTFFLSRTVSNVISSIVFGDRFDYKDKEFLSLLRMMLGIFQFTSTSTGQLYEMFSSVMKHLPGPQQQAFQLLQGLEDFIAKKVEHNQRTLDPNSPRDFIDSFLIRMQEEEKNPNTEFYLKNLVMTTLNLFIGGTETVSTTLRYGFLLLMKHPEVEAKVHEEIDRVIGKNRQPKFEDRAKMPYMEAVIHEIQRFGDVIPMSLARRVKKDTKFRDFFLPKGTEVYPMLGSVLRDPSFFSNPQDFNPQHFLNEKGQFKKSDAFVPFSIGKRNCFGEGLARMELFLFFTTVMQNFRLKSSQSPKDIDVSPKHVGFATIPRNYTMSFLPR
# Experimental: as §1, §2, §3, §4
# CYP2E1 = CYP2E1 (Homo sapiens, UniProt P05181); assay: Metabolism in transgenic HEK293 cells expressing CYP2E1; details: 20 µM parent PCB, 24 h, supernatant
# Chain of CYP2E1 (P05181 whole entry): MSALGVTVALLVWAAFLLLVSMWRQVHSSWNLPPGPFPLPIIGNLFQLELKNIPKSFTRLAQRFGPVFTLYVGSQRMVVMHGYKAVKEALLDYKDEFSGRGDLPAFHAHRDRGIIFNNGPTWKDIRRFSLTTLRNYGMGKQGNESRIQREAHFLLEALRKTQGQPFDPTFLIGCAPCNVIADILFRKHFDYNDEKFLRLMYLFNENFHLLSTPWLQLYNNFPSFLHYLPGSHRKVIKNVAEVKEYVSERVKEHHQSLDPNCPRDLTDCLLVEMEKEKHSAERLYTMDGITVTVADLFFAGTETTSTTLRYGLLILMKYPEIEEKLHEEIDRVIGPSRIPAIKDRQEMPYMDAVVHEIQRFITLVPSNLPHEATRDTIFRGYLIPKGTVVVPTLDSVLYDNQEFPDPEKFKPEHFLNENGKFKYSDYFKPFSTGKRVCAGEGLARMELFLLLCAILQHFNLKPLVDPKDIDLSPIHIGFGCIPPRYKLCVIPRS
# Experimental: as §1, §2, §3, §4
# HEK293CYP2A6 cells = assay: Micronucleus assay in HEK293CYP2A6 cells; type: cell-based, human; details: positive control, 10 µm, 24 h
# Experimental: Transgenic HEK293CYP2A6 and HEK293CYP2C9 cells were cultured in T25 flasks, with a seeding density of 1 × 10^6 cells per flask at 37 °C with 5% CO2. Cells were allowed to grow for 24 h geneticin free before PCBs were added (20 µM or 30 µM). Controls included cells grown in the presence of 1% ethanol (vol/vol) (negative control) or […] 4-nitroquinoline 1-oxide (positive control). Following further incubation for 24 h, cells were synchronized by adding Cytochalasin B. Subsequently, cells were harvested by trypsinization, centrifuged (2,000g, 10 min), and washed with DPBS (Dulbecco’s PBS). For hypotonic shock, 4 °C cold potassium chloride solution was added to the cells under agitation. Cells were completely resuspended and incubated at room temperature for 5 min. After centrifugation (2,500g, 10 min), the supernatant was discarded. To fix the cells, they were treated with a methanol/acetic acid solution (− 20 °C), with a minimum incubation time of 15 min at room temperature. Following centrifugation (2,500g, 10 min), the supernatant was discarded, and the fixation process was repeated at least three times. Finally, the samples were dissolved in 1 mL of fixative solution and incubated overnight at 4 °C. For analysis, two to three drops from each sample were placed on a glass slide, with intermittent heating of the slide. Subsequently, the cells were visualized with acridine orange, and using a fluorescence microscope (Leica DM6000B, Filter I3 450–490 nm), 2,000 cells per sample were counted.
# CYP1A2 = target: T3, CYP1A2 (Homo sapiens, UniProt P05177); assay: Metabolism in transgenic HEK293 cells expressing CYP1A2 (LC-MS/MS of supernatant)
# T3 sequence (P05177 1-516): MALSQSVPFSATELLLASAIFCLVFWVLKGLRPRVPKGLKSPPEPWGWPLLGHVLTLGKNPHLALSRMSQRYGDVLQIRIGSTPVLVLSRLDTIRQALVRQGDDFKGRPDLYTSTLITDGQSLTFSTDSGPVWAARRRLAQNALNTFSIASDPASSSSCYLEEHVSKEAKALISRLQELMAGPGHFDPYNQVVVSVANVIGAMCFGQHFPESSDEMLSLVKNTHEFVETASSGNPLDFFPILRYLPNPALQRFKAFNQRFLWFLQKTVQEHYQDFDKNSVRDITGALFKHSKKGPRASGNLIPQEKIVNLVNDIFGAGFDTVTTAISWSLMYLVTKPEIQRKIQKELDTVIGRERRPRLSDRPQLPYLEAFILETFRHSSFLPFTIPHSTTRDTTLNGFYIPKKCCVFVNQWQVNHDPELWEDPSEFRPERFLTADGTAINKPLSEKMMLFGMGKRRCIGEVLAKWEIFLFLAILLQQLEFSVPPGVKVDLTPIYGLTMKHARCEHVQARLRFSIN
# Experimental: as §1, §2, §3, §4
# Chain of CYP3A4 (P08684 whole entry): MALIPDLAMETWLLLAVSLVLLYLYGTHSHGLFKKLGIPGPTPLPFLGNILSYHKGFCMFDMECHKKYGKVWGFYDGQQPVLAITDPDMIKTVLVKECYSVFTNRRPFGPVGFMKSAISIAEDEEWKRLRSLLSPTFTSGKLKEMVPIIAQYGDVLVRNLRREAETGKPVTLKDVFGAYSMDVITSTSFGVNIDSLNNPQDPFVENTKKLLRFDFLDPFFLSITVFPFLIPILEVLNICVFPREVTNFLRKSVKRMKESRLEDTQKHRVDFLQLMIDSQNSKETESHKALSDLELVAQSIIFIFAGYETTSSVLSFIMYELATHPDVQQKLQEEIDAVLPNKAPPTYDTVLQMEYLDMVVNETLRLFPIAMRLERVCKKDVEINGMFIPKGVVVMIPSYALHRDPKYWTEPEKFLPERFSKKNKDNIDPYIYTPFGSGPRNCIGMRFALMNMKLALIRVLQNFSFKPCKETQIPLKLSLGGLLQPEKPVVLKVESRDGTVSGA
smiles,measurement,setting,value
"Oc1cc(Cl)cc(-c2cc(Cl)ccc2Cl)c1Cl [3-OHCB52, 2,2′,5,5′-tetrachloro-3-biphenylol]","Quantification of metabolites generated from PCB28, 52, and 101",CYP3A4; CYP3A4 Clone B4,"0,21 nM"
same,"Quantification of metabolites generated from PCB28, 52, and 101",CYP3A4; CYP3A4 Clone D10,"0,66 nM"
same,"Quantification of metabolites generated from PCB28, 52, and 101",CYP3A4; CYP3A4 Clone E6,"0,45 nM"
same,"Quantification of metabolites generated from PCB28, 52, and 101",CYP2C8; CYP2C8 Clone A3,<LOQ
same,"Quantification of metabolites generated from PCB28, 52, and 101",CYP2C8; CYP2C8 Clone D8,"0,09 nM"
same,"Quantification of metabolites generated from PCB28, 52, and 101",CYP2C8; CYP2C8 Clone D9,<LOQ
same,"Quantification of metabolites generated from PCB28, 52, and 101",CYP2A6; CYP2A6 Clone B7,"0,87 nM"
same,"Quantification of metabolites generated from PCB28, 52, and 101",CYP2A6; CYP2A6 Clone C4,"0,75 nM"
same,"Metabolite concentration formed, range across cell clones",CYP2A6,0.23–0.27 µg/L and 0.74–0.87 nM
same,"Quantification of metabolites generated from PCB28, 52, and 101",CYP2E1; CYP2E1 Clone B4,"0,38 nM"
same,"Quantification of metabolites generated from PCB28, 52, and 101",CYP2E1; CYP2E1 Clone B5,"0,59 nM"
same,"Quantification of metabolites generated from PCB28, 52, and 101",CYP2E1; CYP2E1 Clone E6,"0,74 nM"
"Oc1cc(Cl)c(-c2cc(Cl)ccc2Cl)cc1Cl [4-OHCB52, 2,2′,5,5′-tetrachloro-4-biphenylol]","Quantification of metabolites generated from PCB28, 52, and 101",CYP3A4; CYP3A4 Clone B4,"0,23 nM"
same,"Quantification of metabolites generated from PCB28, 52, and 101",CYP3A4; CYP3A4 Clone D10,"0,72 nM"
same,"Quantification of metabolites generated from PCB28, 52, and 101",CYP3A4; CYP3A4 Clone E6,"0,54 nM"
same,"Quantification of metabolites generated from PCB28, 52, and 101",CYP2C8; CYP2C8 Clone A3,<LOQ
same,"Quantification of metabolites generated from PCB28, 52, and 101",CYP2C8; CYP2C8 Clone D8,"0,1 nM"
same,"Quantification of metabolites generated from PCB28, 52, and 101",CYP2C8; CYP2C8 Clone D9,<LOQ
same,"Quantification of metabolites generated from PCB28, 52, and 101",CYP2A6; CYP2A6 Clone B7,"319,55 nM"
same,"Quantification of metabolites generated from PCB28, 52, and 101",CYP2A6; CYP2A6 Clone C4,"1029,16 nM"
same,"Quantification of metabolites generated from PCB28, 52, and 101",CYP2A6; CYP2A6 Clone C5,"30,78 nM"
same,"Metabolite concentration formed, range across cell clones",CYP2A6,9.48 to 316.89 µg/L
same,"Quantification of metabolites generated from PCB28, 52, and 101",CYP2E1; CYP2E1 Clone B4,"5,55 nM"
same,"Quantification of metabolites generated from PCB28, 52, and 101",CYP2E1; CYP2E1 Clone B5,"8,9 nM"
same,"Quantification of metabolites generated from PCB28, 52, and 101",CYP2E1; CYP2E1 Clone E6,"10,23 nM"
"O=[N+]([O-])c1cc[n+]([O-])c2ccccc12 [4-nitroquinoline-(1)-oxide, reference compound]",Micronucleus formation compared to the negative control ethanol,HEK293CYP2A6 cells,consistent and significant elevation
"Oc1ccc(-c2ccc(Cl)cc2)c(Cl)c1Cl [4′-OHCB25, 2′,3′,4-trichloro-4′-biphenylol]","Metabolite concentration formed, range across cell clones","CYP1A2; HEK293CYP1A2 cell clones, 20 µM PCB28, 24 h",0.15–0.23 µg/L and 0.56–0.84 nM
"Cn1c(=O)c2c(ncn2C)n(C)c1=O [Caffeine, reference compound]",Conversion product,"CYP1A2; HEK293CYP1A2, 10 µM substrate, 24 h",Paraxanthine
